Among the test systems are UO-31 renal; OVCAR-8 ovarian; M14 melanoma; SNB-75 CNS; OVCAR-4 ovarian; OVCAR-5 ovarian; SK-MEL-28 melanoma; UACC-62 melanoma; MOLT-4 leukemia; SK-MEL-5 melanoma.
Holding throughout (assay): inhibition of tumour cell growth, NCI panel, 48 h

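Briefly, cells in 96-well plates were exposed to five compound concentrations for 48 h, and endpoints were estimated by linear interpolation. Here, GI50 denotes the concentration required for 50% inhibition of growth. Definition used: TGI = concentration required for complete inhibition of growth.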 Bounds are passed on as bounds.

Take `N#CN=[N+]([O-])c1ccc(C(=O)O)cc1`: the TGI in the assay on UO-31 renal is 30.3 µM; in the assay on OVCAR-8 ovarian, 37.1 µM; in the assay with M14 melanoma it was 34 µM; in the assay with SNB-75 CNS, 38.9 µM; with OVCAR-4 ovarian it was 35.8 µM; in the assay with OVCAR-5 ovarian it was 34.7 µM. Besides, the TGI amounted to 33.4 µM in the assay on SK-MEL-28 melanoma and 31.4 µM with UACC-62 melanoma.
In the case of `CSc1nc(NC2OCC(O)C(O)C2O)c(N)c(=O)[nH]1` (centres undefined), the TGI in the assay with UO-31 renal, in the assay on MOLT-4 leukemia, in the assay with OVCAR-8 ovarian, with SK-MEL-5 melanoma, in the assay on SNB-75 CNS and with OVCAR-4 ovarian was above 100 µM in each case. Besides, the TGI with OVCAR-5 ovarian, with SK-MEL-28 melanoma and with UACC-62 melanoma was above 100 µM each time.
Consider `Cc1cc2c(cc1C)OC(=O)CC2`, for which the TGI in the assay with UO-31 renal, with MOLT-4 leukemia, in the assay with OVCAR-8 ovarian, in the assay on M14 melanoma, in the assay with SK-MEL-5 melanoma and with SNB-75 CNS was above 100 µM in each case. Moreover, the TGI in the assay with OVCAR-4 ovarian, with OVCAR-5 ovarian, with SK-MEL-28 melanoma and in the assay with UACC-62 melanoma was above 100 µM each time.
`NCCCOc1ccc([N+](=O)[O-])cc1Cl`: the TGI with UO-31 renal, with MOLT-4 leukemia, in the assay with OVCAR-8 ovarian, in the assay on M14 melanoma, in the assay with SK-MEL-5 melanoma and in the assay with SNB-75 CNS was above 100 µM in each case. Further, the TGI with OVCAR-4 ovarian, with OVCAR-5 ovarian, in the assay on SK-MEL-28 melanoma and in the assay on UACC-62 melanoma was above 100 µM each time.
With `CC(=O)c1ccc2c(c1)c1c(C)c3c[n+](C)ccc3c(C)c1n2C`, the TGI in the assay with UO-31 renal is above 23.7 µM; in the assay with MOLT-4 leukemia, 20.8 µM; in the assay with OVCAR-8 ovarian it was 39.9 µM; in the assay on SK-MEL-5 melanoma, above 47.8 µM; in the assay with SNB-75 CNS, 57.1 µM; in the assay on OVCAR-4 ovarian, 54.4 µM. The TGI with OVCAR-5 ovarian was above 100 µM; in the assay with SK-MEL-28 melanoma, 32.3 µM; with UACC-62 melanoma, 8.23 µM.
`C/C(N=NS(=O)(=O)c1ccccc1)=C1\C=CC=CN1O`: the TGI with UO-31 renal, in the assay on MOLT-4 leukemia, with OVCAR-8 ovarian, in the assay with M14 melanoma, in the assay with SK-MEL-5 melanoma and in the assay on SNB-75 CNS was above 100 µM in each case. For the same compound, the TGI in the assay with OVCAR-4 ovarian, with OVCAR-5 ovarian, in the assay on SK-MEL-28 melanoma and in the assay with UACC-62 melanoma was above 100 µM throughout.
`Cc1cc(C)n(-c2nsc3ccccc23)n1`: the TGI is above 100 µM in the assay on UO-31 renal; above 100 µM with MOLT-4 leukemia; above 100 µM in the assay on OVCAR-8 ovarian; above 100 µM in the assay with M14 melanoma; above 100 µM with SK-MEL-5 melanoma; 98.3 µM with SNB-75 CNS. Moreover, the TGI in the assay with OVCAR-4 ovarian, in the assay with OVCAR-5 ovarian, in the assay on SK-MEL-28 melanoma and with UACC-62 melanoma was above 100 µM each time.
Consider `CC(=O)OCC1=C(C(=O)O)N2C(=O)C(NC(=O)CSc3ccncc3)C2SC1` (centres undefined), for which the TGI in the assay on UO-31 renal, with MOLT-4 leukemia, in the assay with OVCAR-8 ovarian, in the assay on M14 melanoma, with SK-MEL-5 melanoma and with SNB-75 CNS was above 100 µM in each case. Moreover, the TGI with OVCAR-5 ovarian, in the assay with SK-MEL-28 melanoma and with UACC-62 melanoma was above 100 µM throughout.
Turning to `CCOC(=O)NC(Nc1ncccn1)(C(=O)OCC)C(F)(F)F` (centres undefined), the TGI in the assay on UO-31 renal, in the assay with MOLT-4 leukemia, in the assay on OVCAR-8 ovarian, in the assay on M14 melanoma, with SK-MEL-5 melanoma and with SNB-75 CNS was above 100 µM in each case. Also, the TGI in the assay with OVCAR-4 ovarian, with OVCAR-5 ovarian, in the assay with SK-MEL-28 melanoma and with UACC-62 melanoma was above 100 µM each time.
Take `CCN(CC)CCNc1ccc2nnn3c4ccc(C)cc4c(=O)c1c23`: the TGI with UO-31 renal amounted to 22.2 µM; with MOLT-4 leukemia, 12.2 µM; in the assay on OVCAR-8 ovarian it was 20.9 µM; in the assay on M14 melanoma, 26.4 µM; with SK-MEL-5 melanoma it was 22.5 µM; with SNB-75 CNS it was 23.2 µM. The TGI in the assay on OVCAR-4 ovarian was determined as 25.2 µM; in the assay on OVCAR-5 ovarian, 21.4 µM; in the assay on SK-MEL-28 melanoma, 28.9 µM; with UACC-62 melanoma it was 27.1 µM.
With `O=C1CSC(=S)N1`, the TGI in the assay with UO-31 renal, in the assay with MOLT-4 leukemia, in the assay with OVCAR-8 ovarian, in the assay on M14 melanoma, in the assay with SK-MEL-5 melanoma and in the assay with SNB-75 CNS was above 100 µM each time. Also, the TGI in the assay with OVCAR-5 ovarian and in the assay on SK-MEL-28 melanoma was above 100 µM throughout.
Consider `O=C1NC2=C(CCCC/C2=N\O)C12CCCCC2`, for which the TGI in the assay on UO-31 renal, with MOLT-4 leukemia, with M14 melanoma, with SNB-75 CNS, in the assay on OVCAR-4 ovarian and with OVCAR-5 ovarian was above 100 µM throughout. The TGI with SK-MEL-28 melanoma and in the assay with UACC-62 melanoma was above 100 µM throughout.
For the compound `Fc1ccc(C2CC(c3cccc(Nc4ccncc4)c3)=NN2c2ccc(Cl)cc2)cc1` (centres undefined), the GI50 in the assay with UO-31 renal is 1.42 µM; in the assay on MOLT-4 leukemia, 2.12 µM; in the assay on M14 melanoma, 1.77 µM; with SK-MEL-5 melanoma, 1.76 µM; in the assay on SNB-75 CNS, 1.25 µM; with OVCAR-4 ovarian it was 1.64 µM. In addition, the GI50 in the assay with OVCAR-5 ovarian was 1.81 µM; in the assay with SK-MEL-28 melanoma it was 1.72 µM; in the assay with UACC-62 melanoma, 1.73 µM. For the same compound, the TGI came out at 2.76 µM in the assay with UO-31 renal; 5.33 µM with MOLT-4 leukemia; 3.38 µM in the assay with M14 melanoma; 3.16 µM in the assay with SK-MEL-5 melanoma; 2.8 µM in the assay with SNB-75 CNS; 3.05 µM in the assay on OVCAR-4 ovarian. The TGI in the assay on OVCAR-5 ovarian turned out to be 4.05 µM; with SK-MEL-28 melanoma, 3.24 µM; in the assay with UACC-62 melanoma it was 3.19 µM.
For `Cc1ccc2c(c1)C(=O)N(N(C)C)CC(=O)N2`, the TGI in the assay on UO-31 renal, in the assay with MOLT-4 leukemia, in the assay on OVCAR-8 ovarian, in the assay with M14 melanoma, with SK-MEL-5 melanoma and with SNB-75 CNS was above 100 µM throughout. Moreover, the TGI in the assay with OVCAR-4 ovarian, in the assay on OVCAR-5 ovarian, in the assay with SK-MEL-28 melanoma and with UACC-62 melanoma was above 100 µM throughout.

For the origin of these results see PubChem BioAssay (NCI).
